Test results from publication PMC9023165, “Antioxidant, Enzyme Inhibitory, and Molecular Docking Approaches to the Antidiabetic Potentials of Bioactive Compounds from Persicaria hydropiper L” (Evidence-based Complementary and Alternative Medicine : eCAM, 2022).
Values after ≈ are worked out from the molar mass of the structure shown. Like-named read-outs stand apart in the source and are kept apart here. Blank lines part the entries; values can stand above or below the compound they belong to.

Tests used:
α-amylase enzyme = biological target: T1, α-amylase enzyme (Sus scrofa, UniProt P00690); test: α-amylase inhibition assay; format: biochemical; conditions: Mean ± SEM
T1 sequence (P00690 16-511): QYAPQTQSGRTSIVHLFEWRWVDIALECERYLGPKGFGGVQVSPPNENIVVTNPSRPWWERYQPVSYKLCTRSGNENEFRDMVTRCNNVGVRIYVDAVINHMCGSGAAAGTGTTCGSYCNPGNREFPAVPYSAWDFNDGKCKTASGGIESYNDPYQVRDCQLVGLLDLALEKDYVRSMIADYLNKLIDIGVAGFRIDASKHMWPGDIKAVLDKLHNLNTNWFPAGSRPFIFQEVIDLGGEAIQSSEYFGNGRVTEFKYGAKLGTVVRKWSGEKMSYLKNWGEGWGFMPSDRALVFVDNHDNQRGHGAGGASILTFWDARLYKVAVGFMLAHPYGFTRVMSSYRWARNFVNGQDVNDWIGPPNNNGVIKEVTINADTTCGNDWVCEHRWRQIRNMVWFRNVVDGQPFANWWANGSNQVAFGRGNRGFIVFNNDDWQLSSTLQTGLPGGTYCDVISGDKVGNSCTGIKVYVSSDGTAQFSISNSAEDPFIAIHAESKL
Procedure: Using this assay, a previously reported protocol was followed. […] Subsequently, 100 µL of 0.5 mg·mL^−1α-amylase solution was added to the mixture and again incubated for 10 min at 25°C. Reaction was stopped via the addition of 200 µL of dinitrosalicylic acid was added and incubated for an additional 5 min in boiling water bath and allowed to cool again. Finally, 50 µL solutions was transferred to 96-well microplate reader and further diluted to 200 µL via the addition of distilled water. Absorbencies were recorded at 540 nm and percent inhibitions were calculated using the equation(4) % Inhibition=1−Δ A Samples/Δ A Control×100.

α-glucosidase enzyme = α-glucosidase enzyme (Saccharomyces cerevisiae, UniProt P53341); test: α-glucosidase inhibition assay; format: biochemical
Procedure: For α-glucosidase inhibition assay, 50 µL solution containing 0.5 U·mL^−1 was added to 50 µL phosphate buffer (6.8 pH) and was added to various concentrations of test samples. The resultant mixture was properly mixed and stored at 37°C for fifteen min. After incubation, 100 µL (3 mM) pNPG solution was added to it. […] Absorption was measured at 405 nm using 96-well microplate reader. Absorption of mixture without addition of test samples was used as control and without substrate was used as blank. Percent inhibitions were calculated using the formula(3) % Inhibition=1−absorbance of sample−absorbance of blank/absorbance of control×100.

DPPH antiradicals assay = test: DPPH antiradicals assay
Procedure: DPPH antiradicals study was conducted in accordance with our previously published protocol. Initially, 0.1% methanolic-DPPH solution was made and its 100 µL was mixed with same volume (100 µL) of test samples in 96-well plates, followed by incubation for about thirty min in a dark place 25 ± 3°C. […] Percent scavenging was estimated as follows:(1) % scavenging=A0−A1/A0×100.

ABTS antiradicals assay = test: ABTS antiradicals assay
Procedure: ABTS antiradicals' study was performed following our earlier reported protocol. For preparation of ABTS solution, 192 mg of ABTS salt was mixed in distilled water with subsequent transfer to fifty-milliliter flask and volume adjustments. Thereafter, 1 mL of the previous solution was added to 17 µL of 140 mM potassium persulphate and the mixture was left in the dark for 24 hours. Subsequently, 1 mL of the reaction mixture was diluted to 50 mL using methanol to obtain the final ABTS dilution used in the assay. Consequently, 190-microliter ABTS solution was added to 10 µL sample solutions and in 96-well plates and were incubated for 2 hrs in dark place at room temperature. After the incubation, decline in color intensity of ABTS was measured at 734 nm via microplate reader. […] Percent ABTS scavenging was determined using equation:(2) %ABTS scavenging=Control absorbance−Sample absorbance/Control absorbance×100.

Chain of α-glucosidase enzyme (P53341 whole entry): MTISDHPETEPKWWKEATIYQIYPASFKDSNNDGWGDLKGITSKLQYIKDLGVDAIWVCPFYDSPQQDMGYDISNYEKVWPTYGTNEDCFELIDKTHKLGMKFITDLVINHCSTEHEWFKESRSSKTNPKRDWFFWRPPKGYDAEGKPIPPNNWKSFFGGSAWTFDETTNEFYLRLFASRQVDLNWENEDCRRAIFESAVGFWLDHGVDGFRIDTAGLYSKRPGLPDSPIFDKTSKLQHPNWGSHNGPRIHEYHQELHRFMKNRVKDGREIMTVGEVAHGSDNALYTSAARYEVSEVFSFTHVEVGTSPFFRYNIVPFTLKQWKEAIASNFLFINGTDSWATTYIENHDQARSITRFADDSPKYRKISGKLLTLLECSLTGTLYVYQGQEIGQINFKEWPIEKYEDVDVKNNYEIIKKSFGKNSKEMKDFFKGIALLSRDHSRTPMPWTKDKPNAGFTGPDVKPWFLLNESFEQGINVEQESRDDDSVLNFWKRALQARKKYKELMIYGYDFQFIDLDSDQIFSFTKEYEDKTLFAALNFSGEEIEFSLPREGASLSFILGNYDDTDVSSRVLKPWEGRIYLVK

SMILES: C[C@H]1O[C@H](O[C@H]2[C@H](O)[C@@H](O)[C@@H](O[C@H]3[C@H](O)[C@@H](O)C(O)O[C@@H]3CO)O[C@@H]2CO)[C@H](O)[C@@H](O)[C@@H]1N[C@H]1C=C(CO)[C@@H](O)[C@H](O)[C@H]1O (stereo partly drawn) [Acarbose]
α-Amylase Inhibition assay % enzyme inhibition (α-amylase enzyme; 62.50 µg·mL^−1): 59.36 ± 0.57%
α-Amylase Inhibition assay % enzyme inhibition (α-amylase enzyme; 125 µg·mL^−1): 65.48 ± 0.74%
α-Amylase Inhibition assay % enzyme inhibition (α-amylase enzyme; 250 µg·mL^−1): 73.62 ± 0.40%
α-Amylase Inhibition assay % enzyme inhibition (α-amylase enzyme; 500 µg·mL^−1): 78.60 ± 0.46%
α-Amylase Inhibition assay % enzyme inhibition (α-amylase enzyme; 1000 µg·mL^−1): 85.72 ± 0.66%
α-Glucosidase inhibition assay % enzyme inhibition (α-glucosidase enzyme): 89.42 ± 0.55 77.52 ± 0.62 71. 36 ± 0.49 62.39 ± 0.49 55.47 ± 0.52%

SMILES: CCC(/C=C/C(C)C1CCC2C3CC=C4CC(O)CCC4(C)C3CCC12C)C(C)C (stereo not drawn) [Ph-2, (E)-17-(5-ethyl-6-methylhept-3-en-2-yl)-10,13-dimethyl-2,3,4,7,8,9,10,11,12,13,14,15,16,17-tetradecahydro-1H-cyclopenta[a]phenanthren-3-ol]
IC50 DPPH scavenging (DPPH antiradicals assay): 200 µg/mL (≈ 485 µM)
% scavenging effect against DPPH radicals (DPPH antiradicals assay; 31.25 µg·mL^−1): 11.83%
% scavenging effect against DPPH radicals (DPPH antiradicals assay; 62.50 µg·mL^−1): 21.33%
% scavenging effect against DPPH radicals (DPPH antiradicals assay; 125 µg·mL^−1): 34.16%
% scavenging effect against DPPH radicals (DPPH antiradicals assay; 250 µg·mL^−1): 59.66%
% scavenging effect against DPPH radicals (DPPH antiradicals assay; 500 µg·mL^−1): 68%
% scavenging effect against DPPH radicals (DPPH antiradicals assay; 1000 µg·mL^−1): 79.33%
IC50 against ABTS radicals (ABTS antiradicals assay): 160 µg/mL (≈ 388 µM)
% inhibition against ABTS radicals (ABTS antiradicals assay; 31.25 µg·mL^−1): 17.44%
% inhibition against ABTS radicals (ABTS antiradicals assay; 62.5 µg·mL^−1): 27.88%
% inhibition against ABTS radicals (ABTS antiradicals assay; 125 µg·mL^−1): 42.89%
% inhibition against ABTS radicals (ABTS antiradicals assay; 250 µg·mL^−1): 60.56%
% inhibition against ABTS radicals (ABTS antiradicals assay; 500 µg·mL^−1): 72.68%
% inhibition against ABTS radicals (ABTS antiradicals assay; 1000 µg·mL^−1): 80.63%

SMILES: CC(=O)OC1COC(=O)C1C (stereo not drawn) [Ph-3, 4-methyl-5-oxo-tetrahydrofuran-3-yl acetate]
IC50 DPPH scavenging (DPPH antiradicals assay): 550 µg/mL
% scavenging effect against DPPH radicals (DPPH antiradicals assay; 31.25 µg·mL^−1): 9.2%
% scavenging effect against DPPH radicals (DPPH antiradicals assay; 62.50 µg·mL^−1): 18.5%
% scavenging effect against DPPH radicals (DPPH antiradicals assay; 125 µg·mL^−1): 29.66%
% scavenging effect against DPPH radicals (DPPH antiradicals assay; 250 µg·mL^−1): 33.33%
% scavenging effect against DPPH radicals (DPPH antiradicals assay; 500 µg·mL^−1): 42%
% scavenging effect against DPPH radicals (DPPH antiradicals assay; 1000 µg·mL^−1): 56%
IC50 against ABTS radicals (ABTS antiradicals assay): 320 µg/mL
% inhibition against ABTS radicals (ABTS antiradicals assay; 1000 µg·mL^−1): 67.16%

The next lines start with results.

IC50 DPPH scavenging (DPPH antiradicals assay): 650 µg/mL (≈ 3570 µM)
IC50 against ABTS radicals (ABTS antiradicals assay): 610 µg/mL (≈ 3350 µM)
SMILES: COC(=O)c1ccc(O)c(OC)c1 [Ph-4, methyl 4-hydroxy-3-methoxybenzoate]
% scavenging effect against DPPH radicals (DPPH antiradicals assay; 31.25 µg·mL^−1): 7.6%
% scavenging effect against DPPH radicals (DPPH antiradicals assay; 62.50 µg·mL^−1): 12.06%
% scavenging effect against DPPH radicals (DPPH antiradicals assay; 125 µg·mL^−1): 19.85%
% scavenging effect against DPPH radicals (DPPH antiradicals assay; 250 µg·mL^−1): 27.48%
% scavenging effect against DPPH radicals (DPPH antiradicals assay; 500 µg·mL^−1): 48.73%
% scavenging effect against DPPH radicals (DPPH antiradicals assay; 1000 µg·mL^−1): 60.26%
% inhibition against ABTS radicals (ABTS antiradicals assay; 1000 µg·mL^−1): 53.66%

IC50 DPPH scavenging (DPPH antiradicals assay): 390 µg/mL (≈ 1600 µM)
IC50 against ABTS radicals (ABTS antiradicals assay): 350 µg/mL (≈ 1430 µM)
IC50 against ABTS radicals (ABTS antiradicals assay; in Figure 3): 390 µg/mL (≈ 1600 µM)
SMILES: CCOc1cc(C(C)=O)c2cc(OC)ccc2c1 [Ph-5, 1-(3-ethoxy-7-methoxynaphthalen-1-yl)ethanone]
% scavenging effect against DPPH radicals (DPPH antiradicals assay; 1000 µg·mL^−1): 58.33%
% inhibition against ABTS radicals (ABTS antiradicals assay; 1000 µg·mL^−1): 69.16%

IC50 DPPH scavenging (DPPH antiradicals assay): 910 µg/mL (≈ 3990 µM)
IC50 against ABTS radicals (ABTS antiradicals assay): 550 µg/mL (≈ 2410 µM)
SMILES: COc1cc(/C=C/c2ccccc2)oc(=O)c1 [Ph-6, (E)-4-methoxy-6-styryl-2H-pyran-2-one]
% scavenging effect against DPPH radicals (DPPH antiradicals assay; 1000 µg·mL^−1): 44%
% inhibition against ABTS radicals (ABTS antiradicals assay; 1000 µg·mL^−1): 61%

IC50 DPPH scavenging (DPPH antiradicals assay): 40 µg/mL (≈ 227 µM)
SMILES: O=C1O[C@H]([C@@H](O)CO)C(O)=C1O [ascorbic acid, reference compound]
% scavenging effect against DPPH radicals (DPPH antiradicals assay; 31.25 µg·mL^−1): 45%
% scavenging effect against DPPH radicals (DPPH antiradicals assay; 62.50 µg·mL^−1): 56.83%
% scavenging effect against DPPH radicals (DPPH antiradicals assay; 125 µg·mL^−1): 62.33%
% scavenging effect against DPPH radicals (DPPH antiradicals assay; 250 µg·mL^−1): 72.85%
% scavenging effect against DPPH radicals (DPPH antiradicals assay; 500 µg·mL^−1): 83.33%
% scavenging effect against DPPH radicals (DPPH antiradicals assay; 1000 µg·mL^−1): 91.80%
